This note sets out measurements from patent publication US11890288B2, “Sulfonamide or sulfinamide compound having effect of inducing BRD4 protein degradation and pharmaceutical use thereof” (MITSUBISHI TANABE PHARMA CORPORATION, priority 2020, dated 2024).

In series [1] the test system is Human breast cancer MDA-MB-436 cells. Description: Cytotoxic action on MDA-MB-436 cells (WST-8, 96 hr). It counts as cell-based. The method, then:
(§1) The cytotoxic action of the compound of the present invention against cancer cells that acquired resistance to conventional BRD4 protein degradation inducing agents was evaluated in vitro. In this experiment, ARV-771 (Proc Natl Acad Sci USA. volume 113, pages 7124-7129 (28 Jun. 2016)) and MZ1 (ACS Chem Biol. Volume 10, pages 1770-1777 (21 Aug. 2015)), in which a ligand for VHL and BRD4 protein inhibitor are linked, were used as a conventional BRD4 protein degradation inducing agent serving as a comparison control. Human breast cancer MDA-MB-436 cells and MDA-MB-436 cells that acquired resistance to conventional BRD4 protein degradation inducing agents (MDA-MB-436 w/o2 cells) were suspended in 10% FBS/RPMI1640, seeded in a 96 well plate and cultured at 5% CO2, 37° C. overnight. A test compound dissolved in DMSO was diluted with 10% FBS/RPMI1640 and added and the cells were further cultured for 96 hr. After culturing, the viable cell number was measured using a cell number measurement WST-8 kit (Kishida Chemical Co., Ltd.). As a control, the measurement was performed under conditions free of the test compound. The cytotoxic activity of the compound of the present invention against each cell is shown in IC50 value in Table 4. The IC50 value is a concentration of the compound showing 50% cell survival rate when the cell survival rate thereof under compound untreated condition is 100%. It was calculated from the straight line connecting the cell survival rate at two points enclosing the 50% cell survival rate and the compound concentration. In addition, the tolerance (fold) was calculated by dividing the IC50 value in MDA-MB-436 w/o2 cells by the IC50 value in MDA-MB-436 cells.

The next series relates to MDA-MB-436 w/o2 cells. In words: Cytotoxic action on MDA-MB-436 w/o2 cells that acquired resistance to conventional BRD4 degraders (WST-8, 96 hr). It counts as cell-based, human. The conditions noted are these: for resistance: IC50 in MDA-MB-436 w/o2 cells divided by IC50 in MDA-MB-436 cells; for IC50: MDA-MB-436 w/o2 cells, 96 hr; for resistance of MDA-MB-436 w/o2 cells to the substance (in words): MDA-MB-436 w/o2 versus MDA-MB-436 cells. The method, then:
as §1

Series [2] deals with T1, BRD4 protein (Homo sapiens (Human), UniProt O60885). Description: BRD4 protein degradation inducing action in MDA-MB-436 cells (Western blot, 6 hr). The conditions noted are these: MDA-MB-436 cell. Format: cell-based. The method, then: (§2) The BRD4 protein degradation inducing action of the compound of the present invention on the cancer cells that acquired resistance to conventional BRD4 protein degradation inducing agents was evaluated in vitro. In this experiment, ARV-771 and MZ1, in which a ligand for VHL and BRD4 protein inhibitor are linked, were used as a conventional BRD4 protein degradation inducing agent serving as a comparison control. Human breast cancer MDA-MB-436 cells and MDA-MB-436 cells that acquired resistance to conventional BRD4 protein degradation inducing agents (MDA-MB-436 w/o2 cells) were suspended in 10% FBS/RPMI1640, seeded in a 6 well plate and cultured at 5% CO2, 37° C. overnight. A test compound dissolved in DMSO was diluted with 10% FBS/RPMI1640 and added and the cells were further cultured for 6 hr. After culturing, the cells were lysed in a solubilizing solution (10 mM Tris-HCl, pH 7.4, 0.1% NP-40, 0.1% sodium deoxycholate, 0.1% SDS, 0.15 M NaCl, 1 mM EDTA, 10 μg/mL aprotinin). The solution was electrophoresed and proteins in acrylamide gel were transferred to Immobilon PVDF membrane using a semi-dry transfer device. […] After immersing in a secondary antibody solution for 1 hr, the object protein on the membrane was detected using ECL Prime Western Blotting Detection System or ECL Select Western Blotting Detection System (GE Healthcare).

Series [3] addresses T1, BRD4 protein. In words: BRD4 protein degradation inducing action in MDA-MB-436 w/o2 cells (Western blot, 6 hr). It counts as cell-based. The conditions noted are these: MDA-MB-436 w/o2 cell. The method, then: as §2
For series [4], the system named is human prostate cancer LNCaP cells. In words: Cytotoxic action on LNCaP cells (WST-8, 96 hr). The conditions noted are these: 96 hr culture. It counts as cell-based. The method, boiled down: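 Growth-inhibition format: 96 hr continuous exposure, 37° C, 5% CO2, 10% FBS/RPMI1640, WST-8 read-out. Values are IC50 against the untreated-control survival, taken from the line joining the two points around 50%.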

Series [5] addresses T1, BRD4 protein. In words: BRD4 protein degradation inducing action in LNCaP cells (immunofluorescence, 6 hr). It counts as cell-based. Particulars: anti-BRD4 fluorescence intensity. The method, boiled down:
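Read-out is BRD4 immunofluorescence intensity (560/572 nm) after 6 hr compound treatment of LNCaP cells in 10% FBS/RPMI1640, with fixation, permeabilization and anti-BRD4 staining. Linear interpolation between the two concentrations flanking 50% of untreated intensity gives DC50.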

Series [6] deals with T1, BRD4 protein. Description: Inhibitory action on binding of BRD4 protein and acetylated histone H4 (TR-FRET). The conditions noted are these: BRD4-1 (GST) and acetylated histone H4 peptide, 3 hr. Here is the method:
The inhibitory action of the compound of the present invention on the binding of BRD4 protein and a ligand thereof (acetylated histone H4) was evaluated by the time-resolved fluorescence resonance energy transfer (TR-FRET) method using EPIgeneous™ Binding Domain Kit A (Cisbio), BRD4-1 (GST) (Reaction Biology Corp) and [Lys(Ac)5/8/12/16]-Histone H4(1-21)-GGK (Biotin) (Eurogentec). In this experiment, (+)-JQ1 (Nature volume 468, pages 1067-1073 (23 Dec. 2010)) known to have an inhibitory activity on the binding of BRD4 protein and acetylated histone H4 therefor was used as a positive control drug. A test compound dissolved in DMSO was diluted with attached Diluent Buffer, added to a 384 well white plate, and BRD4-1 (GST) and [Lys(Ac)5/8/12/16]-Histone H4(1-21)-GGK (Biotin) were further added. Thereafter, Streptavidin-d2 conjugate and Anti-GST-Eu^3+ Cryptate Conjugate were added and the cells were incubated at room temperature for 3 hr. The binding amount of the BRD4 protein and acetylated histone H4 was measured as the fluorescence intensity (excitation: 314 nm/emission: 620 nm and excitation: 314 nm/emission: 665 nm). […] It was calculated from the straight line connecting the degradation rate at two points enclosing the 50% fluorescence intensity and the compound concentration.

Where two headings read alike, the source gives them in different places.

On to `Cc1ncsc1-c1ccc(CNC(=O)[C@@H]2C[C@@H](O)CN2C(=O)[C@@H](NC(=O)COCCOCCOCCNC(=O)C[C@@H]2N=C(c3ccc(Cl)cc3)c3c(sc(C)c3C)-n3c(C)nnc32)C(C)(C)C)cc1` [MZ1, reference compound], for which the results for the 50% inhibitory concentration (IC50) (in series [1]; with MDA-MB-436 w/o2 cells) were 1900 nM and more than 50000 nM, respectively. For the same compound, the resistance with MDA-MB-436 w/o2 cells is listed as more than 26 fold. In addition, the “resistance of MDA-MB-436 w/o2 cells to the substance (in words)” value in the series with MDA-MB-436 w/o2 cells is reported as “showed resistance”. Also, the “degradation of BRD4 protein (Western blot, FIG. 1)” value is given as “induced degradation of BRD4 protein” on BRD4 protein [2] and “did not induce degradation” at BRD4 protein [3].
For the compound `COC(=O)C[C@@H]1N=C(c2ccc(-c3ccc(C(=O)NCCc4ccc(S(=O)(=O)Nc5ccc(C)c6c(C#N)c[nH]c56)cc4)cc3)cc2)c2c(sc(C)c2C)-n2c(C)nnc21` [Example 11, methyl [(6S)-4-{4′-[(2-{4-[(3-cyano-4-methyl-1H-indol-7-yl)sulfamoyl]phenyl}ethyl)carbamoyl][1,1′-biphenyl]-4-yl}-2,3,9-trimethyl-6H-thieno[3,2-f][1,2,4]triazolo[4,3-a][1,4]diazepin-6-yl]acetate], the concentration for half-maximal inhibition (IC50) in series [4] worked out at 0.074 nM; in series [1] (Homo sapiens) it was 0.27 nM; in the series on MDA-MB-436 w/o2 cells (Homo sapiens), 0.31 nM; at BRD4 protein [6], 5.7 nM. The compound also displayed a DC50 on BRD4 protein [5] of 0.083 nM. For the same compound, in the series on MDA-MB-436 w/o2 cells, the resistance is 1.2 fold.
`Cc1ncsc1-c1ccc([C@H](C)NC(=O)[C@@H]2C[C@@H](O)CN2C(=O)[C@@H](NC(=O)COCCCOCCNC(=O)C[C@@H]2N=C(c3ccc(Cl)cc3)c3c(sc(C)c3C)-n3c(C)nnc32)C(C)(C)C)cc1` [ARV-771, reference compound]: the concentration for half-maximal inhibition (IC50) in series [1] came to 5.6 nM; in the series with MDA-MB-436 w/o2 cells, 860 nM. In addition, the resistance in the series with MDA-MB-436 w/o2 cells worked out at 150 fold. Besides, in the series with MDA-MB-436 w/o2 cells, the “resistance of MDA-MB-436 w/o2 cells to the substance (in words)” value is reported as “showed resistance”. For the same compound, the entries for the “degradation of BRD4 protein (Western blot, FIG. 1)” value at BRD4 protein [2] and on BRD4 protein [3] were “induced degradation of BRD4 protein” and “did not induce degradation”, respectively.
